Reference: PMC12680861, “Comparative analysis of LJ-4378 and tirzepatide in mouse models of obesity and weight regain” (Archives of Pharmacal Research, 2025)

How the values were obtained:
HFD-fed mice [1] = experiment: Diet-induced obesity model: body weight, body composition, adipose weights, micro-CT; format: in vivo, C57BL/6 J male mice; conditions: for fat mass reduction relative to HFD controls / reduction in total body weight compared to the HFD control group: LJ-4378 1 mg/kg/day I.P., TZP 10 nmol/kg/day S.C.
Method: Animal experiments were conducted in accordance with the guidelines approved by the Institutional Animal Care and Use Committees (IACUC) of Seoul National University (SNU-230113–5-2, SNU-250410–1, and SNU-250811–5). C57BL/6 J male mice and Sprague–Dawley (SD) male rats were raised in a controlled animal facility with a temperature of 22 ± 1 °C and subjected to a 12-h light/12-h dark cycle. Mice were randomly assigned to experimental groups and fed either a normal chow diet (NCD, protein: 24.52% calories, carbohydrates: 63.07% calories, fat: 12.41% calories, 38,057, Purina Lab, Seongnam, Republic of Korea) or a high-fat diet (HFD, protein: 20% kcal, carbohydrate: 20% kcal, fat: 60% kcal, New Brunswick, D12492, Research Diets, NJ, USA) for the specified durations, according to group assignment. Both diet and water were provided ad libitum. SD rats (230–240 g) were provided standard rat chow and had free access to water. Prior to the experiment, the rats underwent a 12-h fasting period.
(§1) To evaluate the anti-obesity effect in vivo, mice fed either NCD or HFD for 10 weeks were subsequently treated for up to 4 weeks. To control for injection route-related variables, all mice received both intraperitoneal (I.P.) and subcutaneous (S.C.) injections. The administration were as follows: LJ-4378 treated mice received LJ-4378, which was synthesized in our laboratory at > 95% purity (1 mg/kg/day, I.P.) (Hou et al. [2010]; Kim et al. [2022]) along with the vehicle for TZP (40 mM Tris–HCl, pH 8, S.C.); TZP treated mice received TZP (Samms et al. [2021]; Kim et al. [2022]) (LY3298176, MedChemExpress, Monmouth Junction, NJ, USA) (10 nmol/kg/day, S.C.) along with the vehicle for LJ-4378 (0.2% DMSO, I.P.); vehicle control mice received both vehicles (0.2% DMSO, I.P. and 40 mM Tris–HCl, pH 8, S.C.)
Body composition and micro-CT analysis were performed after the treatment with vehicle, LJ-4378, or TZP for the indicated duration in HFD-fed mice and WR mice.
A nuclear magnetic resonance (NMR) technology system with EchoMRI-700 (Echo Medical Systems, […]) was used to analyze body composition.
To assess the abdominal fat volume, we employed the Quantum GX2 micro-CT imaging system (PerkinElmer, Waltham, MA, USA). Mice were anesthetized with isoflurane and positioned on the micro-CT bed for imaging of the abdominal region, defined from the proximal end of the L1 vertebra to the distal end of the L5 vertebra. Imaging was performed at 90 kV/88 µA with a field of view of 72 mm, a pixel size of 90 µm, and a 2-min acquisition time at standard resolution. Visceral, subcutaneous, and total abdominal fat volumes were quantified using AnalyzeDirect software (ver. 12.0, Overland Park, KS, USA).

HFD-fed mice [2] = experiment: Adipose tissue (gWAT) and systemic inflammation in HFD-fed mice; format: in vivo, C57BL/6 J male mice; conditions: for serum TNF-α levels: ELISA; for macrophage accumulation in gWAT (F4/80 protein, crown-like structures): compared with HFD controls
Method: as §1
The serum TNF-α level was measured using TNF-alpha ELISA MTA00B (R&D system) in accordance with the manufacturer’s protocol.
For protein extraction, we utilized PRO-RERP Protein Extraction Solution (17081, iNtRON Biotechnology, Gyeonggi-do, Korea), supplemented with […] Protease Inhibitor (S8820, Sigma, St. Louis, MO, USA) and PhosSTOP phosphatase inhibitor (#4906837001, Roche, Basel, Switzerland). Protein concentrations were determined using the Pierce BCA protein assay Kit (#23227, Thermo Fisher, Waltham, Massachusetts, USA) by measuring absorbance at 562 nm with a MultiSkan GO spectrophotometer (Thermo Fisher). The quantified proteins were loaded and separated in 12% SDS-PAGE gels and transferred to polyvinylidene difluoride (PVDF) membranes (Bio-Rad, Hercules, CA, USA). Membranes were blocked in 5% bovine serum albumin or skim milk in Tris-buffered saline with 0.1% Tween 20 (TBST) for 1 h, followed by overnight incubation with primary antibodies. The next day, membranes were washed 3 times with TBST and incubated for 1 h with horseradish peroxidase (HRP)-conjugated secondary antibody: Goat anti-rabbit (1:3000, #31460, Thermo Fisher) and Goat anti-Mouse IgG (1:3000, 115–035-174, Jackson ImmunoResearch). After secondary antibody incubation, membranes were washed 3 times with TBST and detected with the Fusion Solo chemiluminescence imaging system (Vilber Lourmat, France). EvolutionCapt (version 17.03) software and the ImageJ (National Institutes of Health, Bethesda, MD, USA) program were used for analysis and to quantify the protein level.
RT-qPCR was conducted according to the method (Cho et al. [2022]). The tissue samples were lysed in TRIzol (#15596018, Thermo Fisher), and the total RNA was extracted. The extracted RNA was synthesized into cDNA using the cDNA Reverse Transcription Kit (Applied Biosystems, Waltham, MA, USA). mRNA levels were quantified using iQ SYBR Green Supermix on the CFX Connect Real-time system (Bio-rad). Relative expression levels of each gene were calculated using the […] method, with the reference housekeeping gene as follows: Peptidylprolyl isomerase A (Ppia) for adipose tissue and glyceraldehyde-3-phosphate dehydrogenase (Gapdh) for hypothalamus.
Adipose tissues were fixed in 10% formalin (HT50128, Sigma) for 2 days and made into paraffin slides. The deparaffinized sections were stained with ClearView Staining Hematoxylin (MA010081, BBC Biochemical, Mount Vernon, WA, USA) and Eosin Y Alcoholic (#3610, BBC Biochemical) solution. The crown-like structure formation of gonadal white adipose tissue (gWAT) and triglyceride (TG) accumulation in the liver are observed using hematoxylin and eosin staining on paraffin slides. The images were captured using Nikon Elements (NIS BR Analysis ver 5.10.00).

Compound: CCCCC#Cc1nc(N)c2ncn([C@@H]3SC[C@@H](O)[C@H]3O)c2n1 [LJ-4378]
- fat ratio (% of the total body weight) (HFD-fed mice [1]; 4 weeks of LJ-4378, HFD-fed mice): 20.1%
- fat mass reduction relative to HFD controls (HFD-fed mice [1]; 14 days): 30.7%
- reduction in total body weight compared to the HFD control group (HFD-fed mice [1]; 14 days): 9.04%
- iWAT and gWAT mass (HFD-fed mice [1]; HFD-fed mice, 14 days): significantly reduced
- visceral and subcutaneous abdominal fat (micro-CT) (HFD-fed mice [1]; HFD-fed mice, 14 days): reduction
- reduction in body weight (HFD-fed mice [1]; four weeks of LJ-4378 administration, HFD-fed mice): 15.5%
- serum TNF-α levels (HFD-fed mice [2]; HFD-fed mice): reduced
- Adgre1 and Tnf-α expression in gWAT (HFD-fed mice [2]; HFD-fed mice, RT-qPCR): remarkably suppressed
- M2-like macrophage markers (Arg1, Clec10a, Chil3, Il-10) in gWAT (HFD-fed mice [2]; HFD-fed mice, RT-qPCR): selectively upregulated
- macrophage accumulation in gWAT (F4/80 protein, crown-like structures) (HFD-fed mice [2]): significantly reduced

Compound: Tirzepatide [TZP, reference compound]
- fat ratio (% of the total body weight) (HFD-fed mice [1]; 2 weeks of TZP treatment, HFD-fed mice): 27.4%
- fat mass reduction relative to HFD controls (HFD-fed mice [1]; 14 days): 32.4%
- reduction in total body weight compared to the HFD control group (HFD-fed mice [1]; 14 days): 18.63%
- brown adipose tissue (BAT) mass (HFD-fed mice [1]; HFD-fed mice, 14 days): reduced
- iWAT and gWAT mass (HFD-fed mice [1]; HFD-fed mice, 14 days): significantly reduced
- visceral and subcutaneous abdominal fat (micro-CT) (HFD-fed mice [1]; HFD-fed mice, 14 days): reduction
- serum TNF-α levels (HFD-fed mice [2]; HFD-fed mice): reduced
- Adgre1 and Tnf-α expression in gWAT (HFD-fed mice [2]; HFD-fed mice, RT-qPCR): remarkably suppressed
- macrophage accumulation in gWAT (F4/80 protein, crown-like structures) (HFD-fed mice [2]): significantly reduced
